Calls of active or inactive are those of the source. The rule behind the calls is not given here.
Legend:
Mus musculus [1] = test: Anti-inflammatory activity in BLM-induced C57BL/6 mouse model of acute lung neutrophilic inflammation assessed as reduction in total cell number in BALF at 10 and 25 mg/kg, ip qd for 7 days post BLM challenge measured on day 7; type: functional, organism-based
Mus musculus [2] = test: Anti-inflammatory activity in BLM-induced C57BL/6 mouse model of acute lung neutrophilic inflammation assessed as MPO activity at 25 mg/kg, ip qd for 7 days post BLM challenge measured on day 7 (reference value: 0.98 U/g); type: functional
Mus musculus [3] = test: Anti-inflammatory activity in BLM-induced C57BL/6 mouse model of acute lung injury assessed as reduction in IL-1beta level in BALF at 10 and 25 mg/kg, ip qd for 7 days post BLM challenge measured on day 7 by ELISA; type: functional, organism-based
Mus musculus [4] = test: Protection against BLM-induced lung fibrosis in C57BL/6 mouse assessed as TGF-beta1 level at 10 and 25 mg/kg, ip qd for 7 days post BLM challenge measured on day 7 by qRT-PCR method; type: functional, organism-based
Mus musculus [5] = test: Protection against BLM-induced lung fibrosis in C57BL/6 mouse assessed as TGF-beta1 level at 10 and 25 mg/kg, ip qd for 7 days post BLM challenge measured on day 14 by qRT-PCR method; type: functional, organism-based
Mus musculus [6] = test: Anti-inflammatory activity in LPS-induced C57BL/6 mouse model of acute lung injury assessed as reduction in pathological changes at 10 to 50 mg/kg, ip pretreated for 1 hr followed LPS challenge measured after 24 hrs by hematoxylin and eosin staining based microscopy; type: functional, organism-based
Mus musculus [7] = test: Anti-inflammatory activity in LPS-induced C57BL/6 mouse model of acute lung injury assessed as reduction in TNFalpha mRNA level pretreated intraperitoneally for 1 hr followed LPS challenge after 24 hrs by qRT-PCR method; type: functional
Mus musculus [8] = test: Anti-inflammatory activity in LPS-induced C57BL/6 mouse model of acute lung injury assessed as reduction in TNFalpha level pretreated intraperitoneally for 1 hr followed LPS challenge after 24 hrs by ELISA; type: functional
Plasma = test: Plasma concentration in mouse by liquid chromatography mass spectrometry; type: ADME, cell-free
Mus musculus [9] = test: Anti-inflammatory activity in BLM-induced C57BL/6 mouse model of acute lung neutrophilic inflammation assessed as reduction in macrophage number in BALF at 25 and 50 mg/kg, ip qd for 7 days post BLM challenge measured on day 7; type: functional, organism-based
Mus musculus [10] = test: Anti-inflammatory activity in BLM-induced C57BL/6 mouse model of acute lung neutrophilic inflammation assessed as LTB4 level at 50 mg/kg, ip qd for 7 days post BLM challenge measured on day 7 (reference value: 139.23 pg/ml); type: functional
Mus musculus [11] = test: Anti-inflammatory activity in BLM-induced C57BL/6 mouse model of acute lung neutrophilic inflammation assessed as protein concentration in BALF at 50 mg/kg, ip qd for 7 days post BLM challenge measured on day 7 (reference value: 2.39 mg/ml); type: functional
Mus musculus [12] = test: Protection against BLM-induced lung fibrosis in C57BL/6 mouse assessed as TGF-beta1 level at 50 mg/kg, ip qd for 7 days post BLM challenge measured on day 7 by ELISA (reference value: 75.39 pg/ml); type: functional
Mus musculus [13] = test: Anti-inflammatory activity in LPS-induced C57BL/6 mouse model of acute lung injury assessed as intact alveolar structure at 10 to 50 mg/kg, ip pretreated for 1 hr followed LPS challenge measured after 24 hrs by hematoxylin and eosin staining based microscopy; type: functional, organism-based
Mus musculus [14] = test: Anti-inflammatory activity in BLM-induced C57BL/6 mouse model of acute lung neutrophilic inflammation assessed as reduction in number of neutrophils in BALF at 25 and 50 mg/kg, ip qd for 7 days post BLM challenge measured on day 7; type: functional, organism-based

Structure (SMILES): CN(C)c1ccc(C(=O)NCCCCCCC(=O)NO)cc1
- Activity (Mus musculus [1]): Active
- Activity (Mus musculus [2]): 0.56 U/g
- Activity (Mus musculus [3]): Active
- Activity (Mus musculus [4]): Active
- Activity (Mus musculus [5]): Active

Structure (SMILES): O=C(CCCCCCC(=O)Nc1ccccc1)NO [VORINOSTAT]
- Activity (Mus musculus [6]): Active
- Activity (Mus musculus [7]): Dose-dependent effect
- Activity (Mus musculus [8]): Dose-dependent effect
- concentration (Plasma): 1 to 10 µM
- Activity (Mus musculus [9]): Active
- Activity (Mus musculus [10]): 43.19 pg/mL
- Activity (Mus musculus [11]): 1.79 mg/mL
- Activity (Mus musculus [12]): 34.09 pg/mL
- Activity (Mus musculus [13]): Active
- Activity (Mus musculus [14]): Active
